Legend:
SK-N-MC = test: MTT cell proliferation assay; assay type: cell-based; details: 3 days, read-out: Cytotoxic effect (MTT) IC50
Description: (§1) Growth studies were performed using the [3-(4,5 dimethylthiazol-2-yl)-2,5-diphenyl-2H-tetrazolium bromide] (Sigma) calorimetric assay.
(§2) About 1500 to 5000 cells, according to the cell line, were seeded in a 96-well culture plate 24 hours before adding increasing concentrations of BA016DD537 or BA016FZ539. The plate was incubated at 37° C. for 3 days. 10 μl MTT stock solution (5 mg/ml in phosphate buffer saline) was added to 90 μl of complete medium in each well, the incubation was continued for 3 h at 37° C. 100 μl of lysis buffer (10% sodium dodecyl sulfate, 1% HCl 1N; pH 4.7) was added to each well, and the plate was incubated overnight. The absorbance was determined using an Integrated EIA Management System (Labsystem) at a wavelength of 570 nm. The proliferation rates were calculated from the OD readings using the untreated cells as 100%.

B16BL6 = test: MTT cell proliferation assay; assay type: cell-based; details: B16BL6, 3 days; read-out: Cytotoxic effect (MTT) IC50
Description: as §1, §2

1205 Lu = test: MTT cell proliferation assay; assay type: cell-based, human; details: 3 days, read-out: Cytotoxic effect (MTT) IC50
Description: as §1, §2

C9 = test: MTT cell proliferation assay; assay type: cell-based, human; details: C9, 3 days; read-out: Cytotoxic effect (MTT) IC50
Description: as §1, §2

Mia Paca-2 [1] = test: MTT cell proliferation assay; assay type: cell-based, human
Description: as §1, §2

PANC-1 [2] = test: MTT cell proliferation assay; assay type: cell-based, human
Description: as §1, §2

HT144 = test: MTT cell proliferation assay; assay type: cell-based, human; details: HT144, 3 days; read-out: Cytotoxic effect (MTT) IC50
Description: as §1, §2

451 Lu = test: MTT cell proliferation assay; assay type: cell-based, human; details: 3 days, read-out: Cytotoxic effect (MTT) IC50
Description: as §1, §2

A375 = test: MTT cell proliferation assay; assay type: cell-based, human; details: A375, 3 days; read-out: Cytotoxic effect (MTT) IC50
Description: as §1, §2

SKMEL28 = test: MTT cell proliferation assay; assay type: cell-based, human; details: SKMEL28, 3 days; read-out: Cytotoxic effect (MTT) IC50
Description: as §1, §2

NCI-H510 = test: SRB (sulforhodamine B) cell proliferation assay; assay type: cell-based, human; details: NCI-H510, viability 72 h, mean +/− SEM
Description: (§3) Growth studies were performed using the Sulforhodamine B (SRB) calorimetric assay (Sigma).
(§4) SRB assay is used for cell density determination based on the measurement of cellular protein content. This method has been optimized for toxicity screening of compounds in adherent cells in a 96-well format (Skehan et al., Proc. Amer. Assoc. Cancer Res. 1989, 30:2436).
(§5) About 50 000 NCI-H510, NCI-H446 or NCI-H187 cells were seeded in a 96-well culture plate while adding increasing concentrations of BA016FZ539.
(§6) After an incubation period, cell monolayers are fixed with 10% (wt/vol) trichloroacetic acid and stained for 30 min, after which the excess dye is removed by washing repeatedly with 1% (vol/vol) acetic acid. The protein-bound dye is dissolved in 10 mM Tris base solution for optic density determination (OD) at 510 nm using a microplate reader.
(§7) The proliferation rates were calculated from the OD readings using the untreated cells as 100%.

NCI-H187 = test: SRB (sulforhodamine B) cell proliferation assay; assay type: cell-based, human; details: NCI-H187, viability 72 h, mean +/− SEM
Description: as §3, §4, §5, §6, §7

NCI-H446 = test: SRB (sulforhodamine B) cell proliferation assay; assay type: cell-based, human; details: NCI-H446, viability 72 h, mean +/− SEM
Description: as §3, §4, §5, §6, §7

Mia Paca-2 [3] = test: SRB (sulforhodamine B) cell proliferation assay; assay type: cell-based, human
Description: as §6, §7
(§8) The effects BA016FZ539 on the growth of MIA PaCa-2 and PANC-1 pancreatic cells were tested over a range of concentrations from 500 μM to 0.16 μM and measured by using the SRB calorimetric assay.
(§9) About 5000 MIA PaCa-2 or PANC-1 cells were seeded in a 96-well culture plate while adding increasing concentrations of BA016FZ539.
(§10) Growth studies were performed using both MTT and SRB calorimetric assay (Sigma). About 1500 B16F10 or 3000 pancreatic cells (MIA PaCa-2 and PANC1) were seeded in a 96-well culture plate before adding increasing concentrations of monomesylate or bimesylate.
(§11) The plates were incubated at 37° C. for 3 days and then were treated depending on SRB or MTT protocols (see material and methods).
(§12) In these two cases, the proliferation rates were calculated from the OD readings using the untreated cells as 100%.

PANC-1 [4] = test: SRB (sulforhodamine B) cell proliferation assay; assay type: cell-based, human
Description: as §6, §7, §8, §9, §10, §11, §12

NIH 3T3 EF = test: MTT cell proliferation assay; assay type: cell-based; details: 3 days, read-out: Cytotoxic effect (MTT) IC50
Description: as §1, §2

B16BL6 melanoma cells = test: wound healing assay (cell motility); assay type: cell-based; details: non cytotoxic concentration
Description: (§13) Wound healing assay was performed to evaluate the effect of BA016DD537 on motility of malignant NIH 3T3 EF cells and melanoma cell lines B16F10 and B16BL6. All the cells were incubated at 37° C. in a humidified 5% CO2 atmosphere. About 100 000-200 000 cells were seeded in a 6-well culture plate and BA016DD537, at the different concentrations, was added 24 hours later. Cells were grown for 3 days to confluence about 90-95% and small scratch-wounds (about 200 μm-1 mm width) were made with a pipette tip. Cell debris were removed, then the cultures were incubated in complete medium for 10 h in the presence of the same concentration of BA016DD537. Then, the cells were fixed for 10 min in PBS containing 3.7% formaldehyde at 4° C.

NIH 3T3 EF cells = test: wound healing assay (cell motility); assay type: cell-based; details: 50 nM
Description: as §13

CS(=O)(=O)[O-].Cc1c2cc[n+](CCN3CCCCC3)cc2c(C)c2c1[nH]c1ccc(O)cc12 [BA016FZ539, 2-(betapiperidino-2-ethyl)-9-hydroxyellipticinium methanesulfonate]
IC50 (SK-N-MC): 0.84 µM | IC50 (B16BL6): 0.212 µM | IC50 (1205 Lu): 1.6 µM | IC50 (C9): 2.1 µM | IC50 (Mia Paca-2 [1]; MIA PaCA-2, viability 72 h, mean +/− SEM (Example 9), read-out: IC50 (μM) MTT): 7.58 µM | IC50 (Mia Paca-2 [1]; Mia Paca-2, 3 days, read-out: Cytotoxic effect (MTT) IC50): 7.6 µM | IC50 (PANC-1 [2]; PANC-1, 3 days, read-out: Cytotoxic effect (MTT) IC50): 22 µM | IC50 (PANC-1 [2]; PANC-1, viability 72 h (Example 9), read-out: IC50 (μM) MTT): 22 µM | IC50 (HT144): 9 µM | IC50 (451 Lu): 4.2 µM | IC50 (A375): 2.9 µM | IC50 (SKMEL28): 10.7 µM | IC50 (NCI-H510): 5.8 µM | IC50 (NCI-H187): 16.9 µM | IC50 (NCI-H446): 22.4 µM | IC50 (Mia Paca-2 [3]; MIA PaCA-2, viability 72 h, mean +/− SEM (Example 9), read-out: IC50 (μM) SRB): 10.2 µM | IC50 (Mia Paca-2 [3]; Mia Paca-2 (Example 11), read-out: IC50 (SRB Test-72 h)): 5.6 µM | IC50 (PANC-1 [4]; PANC-1 (Example 11), read-out: IC50 (SRB Test-72 h)): 50.4 µM | IC50 (PANC-1 [4]; PANC-1, viability 72 h, mean +/− SEM (Example 9), read-out: IC50 (μM) SRB): 20.7 µM

Cc1c2cc[n+](CCN3CCCCC3)cc2c(C)c2c1[nH]c1ccc(O)cc12.[Cl-] [BA016DD537, 2-(β-piperidinoethyl)-9-hydroxyellipticinium chloride]
IC50 (NIH 3T3 EF): 0.4 µM | inhibition of cell motility (B16BL6 melanoma cells): inhibition of the B16BL6 cells motility | inhibition of cell migration (NIH 3T3 EF cells): complete inhibition

Reference: patent US20090197906A1, “REVERSION OF MALIGNANT PHENOTYPE WITH 9-HYDROXY ELLIPTICINE DERIVATIVES” (priority 2006, published 2009)
